Values belong to the molecule of their own block, whether it stands above or below them. Primed or numbered codes have the meaning given here. * marks the point of attachment. Dabcyl′ = CN(C)c1ccc(/N=N/c2ccc(C(=O)*)cc2)cc1; EDANS = O=S(=O)(O)c1cccc2c(NCCN*)cccc12
Experiments:
[1] = tested on: T1, 20S proteasome from murine brain; assay: Specific peptidase activity of 20S proteasome with additives (Table S1); format: biochemical, mouse; details: for Specific peptidase activity using Suc-LLVY-AMC: 20S plus additive: 0.5 µM Bortezomib, 0.1 µM MG132, 0.02% SDS or 11S (1:2, mole:mole), 20S alone 2.37 ± 0.13
T1 construct: from tissue; host or cells: mouse brain
Excerpt: Characterization of puriﬁed proteasomes
teasomes. […] To conﬁrm that
cathepsin B [48] (Table S1).
reaction mixture for both 20S and 26S.
Table S1. Peptidase activity of the samples of 20S and 26S proteasome from murine brain.
The molar ratio between the proteasome

[2] = tested on: 26S proteasome from murine brain; assay: Specific peptidase activity of 26S proteasome with additives (Table S1)
20S proteasome [3] = tested on: T2, 20S proteasome; assay: Apparent kinetic parameters of FRET substrate hydrolysis by 20S proteasome; format: biochemical, mouse; details: substrate 5 to 100 µM, 37 °C, means ± SEM of three independent experiments run in duplicate; for Km: Michaelis-Menten, fluorescence 340/490 nm, 1 h
T2 construct: from tissue; host or cells: mouse brain

20S+11S = tested on: T3, 20S+11S; assay: Apparent kinetic parameters of FRET substrate hydrolysis by 20S+11S complex; format: biochemical, mouse; details: for Km / Vmax·10^−2: apparent, 20S+11S, molar ratio 1:4, substrate 5 to 100 µM, 37 °C, means ± SEM of three independent experiments run in duplicate; for Km: Michaelis-Menten, fluorescence 340/490 nm, 1 h; for Vmax (+11S)/Vmax: ratio of Vmax by 20S+11S to Vmax by 20S, proteasome:11S 1:4
T3 construct: from tissue; host or cells: mouse brain

26S proteasome = tested on: T4, 26S proteasome; assay: Apparent kinetic parameters of FRET substrate hydrolysis by 26S proteasome; format: biochemical, mouse; details: substrate 5 to 100 µM, 37 °C, means ± SEM of three independent experiments run in duplicate; for Km: Michaelis-Menten, fluorescence 340/490 nm, 1 h
T4 construct: from tissue; host or cells: mouse brain

26S+11S = tested on: T5, 26S+11S; assay: Apparent kinetic parameters of FRET substrate hydrolysis by 26S+11S complex; format: biochemical, mouse; details: for Km / Vmax·10^−2: apparent, 26S+11S, molar ratio 1:4, substrate 5 to 100 µM, 37 °C, means ± SEM of three independent experiments run in duplicate; for Km: Michaelis-Menten, fluorescence 340/490 nm, 1 h; for Vmax (+11S)/Vmax: ratio of Vmax by 26S+11S to Vmax by 26S, proteasome:11S 1:4
T5 construct: from tissue; host or cells: mouse brain

20S proteasome [4] = tested on: T2, 20S proteasome; assay: Determination of proteolysis sites of oligoglutamine peptides by LC-MS; format: biochemical, mouse; details: for Products of proteasomal hydrolysis identified: LC-MS, identical for all proteasome complexes (20S, 20S+11S, 26S, 26S+11S); for Peak of the starting substrate after incubation with 20S proteasome: incubation for 48 h, UPLC C18, UV-VIS and MS detection
Protocol: Next, we determined proteolysis sites for our oligoglutamine-containing peptides using liquid chromatography-mass spectrometry (LC-MS). The chromatogram of the Dabcyl-KQ5GD-EDANS solution in DMSO (Figure 3a) has a peak at the retention time of 1.69 min. According to the mass spectrum (Figure 3b), this peak corresponds to the Dabcyl-KQ5GD-EDANS (M = 1458.69 g/mole; z = 2; m/z = 729) molecule. Another fragment with m/z = 252 corresponds to the Dabcyl- (C15H14N3O), and the one with m/z = 380 corresponds to the DabcylK- (C21H26N5O2) fragment. These peaks are likely to arise due to fragmentation in a mass spectrometer since, upon hydrolysis, the masses of these fragments would be 269 and 397, respectively. After the incubation with proteasome for 48 h, the peak at 1.69 min disappeared (Figure 3c), and two other peaks appeared with retention times equal to 1.45 and 1.72 min. These peaks were assigned to the N- and C-ends of the peptide on the basis of the difference in the absorption spectra of the Dabcyl and EDANS moieties. […] Other products were not detected either at short (15 min) or longer hydrolysis times (72 h).
Next, we identified cleavage sites for the substrate with a longer oligoglutamine fragment (Figure 4). The peak with a retention time of 1.06 min (Figure 4a) that corresponds to the Dabcyl-KQ10PPD-EDANS (M = 2236.38 g/mole; z = 2; m/z = 1118) molecule (Figure 4b) disappeared after the substrate was incubated with the 20S proteasome for 48 h. Instead, two other peaks appeared, at 1.14 and 1.37 min (Figure 4c). According to UV spectra for both peaks, the fragment at 1.14 min had Dabcyl chromophore, and the second fragment carried EDANS fluorophore. Finally, according to mass calculation, the first product was attributed to the Dabcyl-KQ2 fragment (Figure 4d) and the second one to the Q7PPD-EDANS moiety (Figure 4e).
Peptide samples were analyzed on an Acquity UPLC system (Waters, Milford, MA, USA) connected to a PDA detector and TQD mass spectrometer (Waters). […] The gradient program was as follows: from 5%B to 50%B per 3 min, from 50%B to 5%B per 0.1 min, at a flow rate of 0.5 mL/min and a temperature of 35 °C. Solvent A: 20 mM formic acid in acetonitrile/water (1:20)/Solvent B: 20 mM formic acid in acetonitrile. Instrument settings and measuring parameters TQD were as follows: capillary voltage 3.5 kV; cone voltage 25 V; source temperature 120 °C; desolvation temperature 450 °C; cone gas flow 50 L/h; desolvation gas flow 800 L/h; MS1 scanning mass from 50 to 1500 Da; positive polarity. The PDA detector range was 220–500 nm. The resulting raw data were analyzed using the MassLynx software (version 4.1 SCN919).

[5] = molecular target: 20S proteasome (mouse (endogenous in brain)) (UniProt Q60692)
Sequence of 20S proteasome (mouse (endogenous in brain)) (Q60692 whole entry, looked up): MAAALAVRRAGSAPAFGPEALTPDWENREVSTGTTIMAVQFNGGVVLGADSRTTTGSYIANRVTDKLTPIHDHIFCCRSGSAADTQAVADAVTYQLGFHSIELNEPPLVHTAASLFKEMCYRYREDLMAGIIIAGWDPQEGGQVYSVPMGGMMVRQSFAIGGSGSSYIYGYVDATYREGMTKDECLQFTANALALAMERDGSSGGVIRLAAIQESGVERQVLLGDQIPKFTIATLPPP

[6] = molecular target: 26S proteasome (mouse (endogenous in brain)) (UniProt Q60692)
Sequence of 26S proteasome (mouse (endogenous in brain)) (Q60692 whole entry, looked up): as above

[7] = means ± SEM of three independent experiments run in duplicate

Specific peptidase activity using Suc-LLVY-AMC [1, 7]: 34 ± 6 nM/min/µg
Increase of the activity of the 20S proteasome ([1]; in the presence of 0.02% SDS): 13–15 times
Effect on the 26S proteasome activity ([2]; in the presence of 0.02% SDS): completely inhibited
Molecule: CCCCCCCCCCCCOS(=O)(=O)[O-].[Na+] [SDS]

Km (20S proteasome [3]): 52 ± 8 µM
Vmax·10^−2 (20S proteasome [3]): 2.3 ± 0.3 10^−2 μM·min^−1
Km (20S+11S): 60 ± 8 µM
Vmax·10^−2 (20S+11S): 6.1 ± 1.4 10^−2 μM·min^−1
Vmax (+11S)/Vmax (20S+11S): 2.7
Km (26S proteasome): 54 ± 10 µM
Vmax·10^−2 (26S proteasome): 2.0 ± 0.3 10^−2 μM·min^−1
Km (26S+11S): 52 ± 10 µM
Vmax·10^−2 (26S+11S): 2.1 ± 0.3 10^−2 μM·min^−1
Vmax (+11S)/Vmax (26S+11S): 1.0
Products of proteasomal hydrolysis identified (20S proteasome [4]): Dabcyl-KQ2 and QGD-EDANS
Peak of the starting substrate after incubation with 20S proteasome (20S proteasome [4]): disappeared
Molecule: Dabcyl-KQ5GD-EDANS [internally quenched fluorogenic FRET substrate with five glutamine residues, EDANS-Dabcyl pair]

Molecule: 11S: 11S proteasomal regulator (PA28) consisting of α/β subunits, isolated from mouse brain
Specific peptidase activity using Suc-LLVY-AMC [1, 7]: 8.8 ± 0.4 nM/min/µg
Specific peptidase activity using Z-LLE-AMC ([1]; 20S+11S (1:2, mole:mole), 20S alone 1.14 ± 0.02, means ± SEM of three independent experiments run in duplicate): 5.2 ± 0.1 nM/min/µg
Specific peptidase activity using Ac-RLR-AMC ([1]; 20S+11S (1:2, mole:mole), 20S alone 2.78 ± 0.07, means ± SEM of three independent experiments run in duplicate): 8.4 ± 0.2 nM/min/µg
Specific peptidase activity using Ac-RLR-AMC ([2]; 26S+11S (1:2, mole:mole), 26S alone 1.92 ± 0.06, means ± SEM of three independent experiments run in duplicate): 2.5 ± 0.2 nM/min/µg
Specific peptidase activity using Z-LLE-AMC ([2]; 26S+11S (1:2, mole:mole), 26S alone 5.4 ± 0.1, means ± SEM of three independent experiments run in duplicate): 6.7 ± 0.5 nM/min/µg

Vmax (+11S)/Vmax of hydrolysis of Dabcyl-KQ5GD-EDANS by the 20S proteasome, proteasome:11S 1:4 [5]: 2.7
Vmax (+11S)/Vmax of hydrolysis of Dabcyl-KQ10GD-EDANS by the 20S proteasome, proteasome:11S 1:4 [5]: 1.5
Vmax (+11S)/Vmax of hydrolysis of Dabcyl-KQ10PPD-EDANS by the 20S proteasome, proteasome:11S 1:4 [5]: 2.3
Vmax (+11S)/Vmax of hydrolysis of Dabcyl-KQ5GD-EDANS by the 26S proteasome, proteasome:11S 1:4 [6]: 1
Vmax (+11S)/Vmax of hydrolysis of Dabcyl-KQ10GD-EDANS by the 26S proteasome, proteasome:11S 1:4 [6]: 1.4
Vmax (+11S)/Vmax of hydrolysis of Dabcyl-KQ10PPD-EDANS by the 26S proteasome, proteasome:11S 1:4 [6]: 2
Molecule: 11S regulator (PA28αβ) (from UniProt P97371 1-249; P97372 1-239) (complex)

Km (20S proteasome [3]): 8.2 ± 1.5 µM
Vmax·10^−2 (20S proteasome [3]): 0.73 ± 0.03 10^−2 μM·min^−1
Km (20S+11S): 5.3 ± 1.3 µM
Vmax·10^−2 (20S+11S): 1.66 ± 0.07 10^−2 μM·min^−1
Vmax (+11S)/Vmax (20S+11S): 2.3
Km (26S proteasome): 24.5 ± 10 µM
Vmax·10^−2 (26S proteasome): 2.3 ± 0.2 10^−2 μM·min^−1
Km (26S+11S): 20 ± 4.6 µM
Vmax·10^−2 (26S+11S): 4.73 ± 0.35 10^−2 μM·min^−1
Vmax (+11S)/Vmax (26S+11S): 2.0
Products of proteasomal hydrolysis identified (20S proteasome [4]): Dabcyl-KQ2 and Q7PPD-EDANS
Peak of the starting substrate after incubation with 20S proteasome (20S proteasome [4]): disappeared
Molecule: Dabcyl-KQ10PPD-EDANS

Km (20S proteasome [3]): 40 ± 3 µM
Vmax·10^−2 (20S proteasome [3]): 0.61 ± 0.02 10^−2 μM·min^−1
Km (20S+11S): 64 ± 14 µM
Vmax·10^−2 (20S+11S): 0.92 ± 0.15 10^−2 μM·min^−1
Vmax (+11S)/Vmax (20S+11S): 1.5
Km (26S proteasome): 18 ± 2 µM
Vmax·10^−2 (26S proteasome): 0.09 ± 0.01 10^−2 μM·min^−1
Km (26S+11S): 38 ± 9 µM
Vmax·10^−2 (26S+11S): 0.12 ± 0.03 10^−2 μM·min^−1
Vmax (+11S)/Vmax (26S+11S): 1.4
Molecule: Dabcyl-KQ10GD-EDANS [internally quenched fluorogenic FRET substrate with ten glutamine residues, EDANS-Dabcyl pair]

apparent Km of hydrolysis by 20S+11S (proteasome:11S 1:4) [5]: 5.3 µM
apparent Km of hydrolysis by the 20S proteasome [5]: 8.2 µM
apparent Km of hydrolysis by 26S+11S (proteasome:11S 1:4) [6]: 20 µM
apparent Km of hydrolysis by the 26S proteasome [6]: 24.5 µM
B1: Dabcyl-KQ10PPD-EDANS (peptide)
peptide: {Dabcyl′}-KQQQQQQQQQQPPD-{EDANS}
SMILES: CN(C)c1ccc(/N=N/c2ccc(C(=O)N[C@@H](CCCCN)C(=O)N[C@@H](CCC(N)=O)C(=O)N[C@@H](CCC(N)=O)C(=O)N[C@@H](CCC(N)=O)C(=O)N[C@@H](CCC(N)=O)C(=O)N[C@@H](CCC(N)=O)C(=O)N[C@@H](CCC(N)=O)C(=O)N[C@@H](CCC(N)=O)C(=O)N[C@@H](CCC(N)=O)C(=O)N[C@@H](CCC(N)=O)C(=O)N[C@@H](CCC(N)=O)C(=O)N3CCC[C@H]3C(=O)N3CCC[C@H]3C(=O)N[C@@H](CC(=O)O)C(=O)NCCNc3cccc4c(S(=O)(=O)O)cccc34)cc2)cc1

apparent Km of hydrolysis by 20S+11S (proteasome:11S 1:4) [5]: 64 µM
apparent Km of hydrolysis by the 20S proteasome [5]: 40 µM
apparent Km of hydrolysis by 26S+11S (proteasome:11S 1:4) [6]: 38 µM
apparent Km of hydrolysis by the 26S proteasome [6]: 18 µM
B2: Dabcyl-KQ10GD-EDANS (peptide)
peptide: {Dabcyl′}-KQQQQQQQQQQGD-{EDANS}
SMILES: CN(C)c1ccc(/N=N/c2ccc(C(=O)N[C@@H](CCCCN)C(=O)N[C@@H](CCC(N)=O)C(=O)N[C@@H](CCC(N)=O)C(=O)N[C@@H](CCC(N)=O)C(=O)N[C@@H](CCC(N)=O)C(=O)N[C@@H](CCC(N)=O)C(=O)N[C@@H](CCC(N)=O)C(=O)N[C@@H](CCC(N)=O)C(=O)N[C@@H](CCC(N)=O)C(=O)N[C@@H](CCC(N)=O)C(=O)N[C@@H](CCC(N)=O)C(=O)NCC(=O)N[C@@H](CC(=O)O)C(=O)NCCNc3cccc4c(S(=O)(=O)O)cccc34)cc2)cc1

apparent Km of hydrolysis by 20S+11S (proteasome:11S 1:4) [5]: 60 µM
apparent Km of hydrolysis by the 20S proteasome [5]: 52 µM
apparent Km of hydrolysis by 26S+11S (proteasome:11S 1:4) [6]: 52 µM
apparent Km of hydrolysis by the 26S proteasome [6]: 54 µM
B3: Dabcyl-KQ5GD-EDANS (peptide)
peptide: {Dabcyl′}-KQQQQQGD-{EDANS}
SMILES: CN(C)c1ccc(/N=N/c2ccc(C(=O)N[C@@H](CCCCN)C(=O)N[C@@H](CCC(N)=O)C(=O)N[C@@H](CCC(N)=O)C(=O)N[C@@H](CCC(N)=O)C(=O)N[C@@H](CCC(N)=O)C(=O)N[C@@H](CCC(N)=O)C(=O)NCC(=O)N[C@@H](CC(=O)O)C(=O)NCCNc3cccc4c(S(=O)(=O)O)cccc34)cc2)cc1

— article PMC10487437 (International Journal of Molecular Sciences, 2023)
